Our source for the viability values is article PMC12040169 (PLOS Biology, 2025).

Molecules are shown by their SMILES.

The data set in a line: in vitro. To be noted: human, hela cells, % viability.
For `CCC(=O)N(C)[C@H]1CC[C@]2(CC1)CNC(=O)c1ccccc1O2` [CBK281683], the viability at 28.5 h, 10 µM was 87.5%. Regarding `CN1C(=O)c2ccccc2C(=O)[C@@]2(C)CN(C(=O)c3ccccc3)C[C@@H]12` [CBK281685], the viability at 28.5 h, 10 µM worked out at 93.2%. `Cc1cc2c(cc1NC(=O)[C@@H]1C[C@@H]3C=C[C@H]1C3)n(C)c(=O)n2C` [CBK281689]: the viability at 28.5 h, 10 µM came to 106%. As to `CCCC(=O)N(C)C1CCC2(CC1)CNC(=O)c1cc(C)ccc1O2` (stereo not drawn) [CBK281694], the viability at 28.5 h, 10 µM is 88.3%. Regarding `CC(C)(C)NC(=O)Cn1cncc1-c1cnn(-c2ccccc2)c1` [CBK281697], the viability at 28.5 h, 10 µM was determined as 106%. The result for `CN1CCCc2cc(-c3cncn3CC(=O)NC(C)(C)C)ccc21` [CBK281700] reads 95%; that for `CC(C)(C)NC(=O)Cn1cncc1-c1cnn(C2CCCCC2)c1` [CBK281701], 93.5%; that for `CC(Oc1ccc(F)cc1)C(=O)N(C)CC1(C)COC1` (stereo not drawn) [CBK281702], 89.7%. With `Cc1cc(CN(C)Cc2cnn(-c3ccc(F)cc3)c2)n[nH]1` [CBK281706], the viability at 28.5 h, 10 µM was 97.1%.

Regarding `CCC1C(=O)NCCN1C(=O)c1ccc2c(c1)ncn2C` (stereo not drawn) [CBK281709], the viability at 28.5 h, 10 µM amounted to 82.4%. The result for `Cc1cc(CN(C)Cc2cn(C)c3cc(F)ccc23)n[nH]1` [CBK281710] reads 89.6%; that for `Cc1cc(C)c2cc(C(=O)N(C)CC3(C)COC3)[nH]c2c1` [CBK281711], 87%; that for `CC(NC(=O)c1cc(C(F)(F)F)[nH]n1)c1ccccn1` (stereo not drawn) [CBK281712], 84.8%. For the compound `Cc1cc(C)n(C(C)C(=O)NCC2(N(C)C)CCCC2)n1` (stereo not drawn) [CBK281713], the viability at 28.5 h, 10 µM came to 107%. Consider `Cc1cccn2cc(C(=O)NC(C)CN3CCCC3)nc12` (stereo not drawn) [CBK281714], for which the viability at 28.5 h, 10 µM amounted to 99.6%.

For `Cc1ccc(-c2cc(C(=O)N(C)CC3(C)COC3)[nH]n2)cc1` [CBK281717], the viability at 28.5 h, 10 µM worked out at 90.9%. In the case of `CN(CC1(C)COC1)C(=O)c1ccc2c(c1)ncn2C1CC1` [CBK281718], the viability at 28.5 h, 10 µM was 86.8%. Regarding `Cc1ccc(-n2cc(CN(C)CC3(C)COC3)cn2)cc1` [CBK281720], the viability at 28.5 h, 10 µM was determined as 93%. The figure for `CN(CC1(C)COC1)C(=O)C1CC(=O)N(C(C)(C)C)C1` (stereo not drawn) [CBK281724] is 112%; for `O=C(Cn1cccn1)NC(CN1CCCCC1)c1ccccc1` (stereo not drawn) [CBK281726] it is 104%; for `Cc1ccc(-c2cnc(NC(=O)Cn3cccn3)n2C)cc1C` [CBK281727] it is 102%. Turning to `CCC1C(=O)NCCN1C(=O)Cc1cccc2cccnc12` (stereo not drawn) [CBK281728], the viability at 28.5 h, 10 µM is 104%. Regarding `Cc1nc2ccccn2c1CN1CCC(N2CCCC2)CC1` [CBK281730], the viability at 28.5 h, 10 µM was 108%.

For the compound `Cc1nn(C)cc1C(C)NC(=O)c1ccc2c(c1)ncn2C` (stereo not drawn) [CBK281732], the viability at 28.5 h, 10 µM is 103%. Turning to `Cc1cc(C2CCCCCN2C(=O)c2cc(C(C)C)on2)on1` (stereo not drawn) [CBK281733], the viability at 28.5 h, 10 µM turned out to be 79.7%. On to `Cc1cccn2cc(C(=O)N(C)CCn3ccnc3C)nc12` [CBK281735], for which the viability at 28.5 h, 10 µM amounted to 91.7%. For `CC1CCN(CC(C)(C)n2cncc2-c2cnn(C)c2)CC1` [CBK281738], the viability at 28.5 h, 10 µM stood at 107%. As to `Cc1nn(C)cc1-c1cncn1CC(C)Oc1ccccc1Cl` (stereo not drawn) [CBK281739], the viability at 28.5 h, 10 µM is 83.8%.

For `CCn1cc(-c2cncn2C(CCN(C)C)c2ccccc2)cn1` (stereo not drawn) [CBK281741], the viability at 28.5 h, 10 µM was determined as 79.2%.

With `CCc1nccn1C(C)C(=O)Nc1ccc2ncn(C)c2c1` (stereo not drawn) [CBK281745], the viability at 28.5 h, 10 µM was 107%. For the compound `CN1CCCCC1CC(=O)Nc1ccc2ncn(C)c2c1` (stereo not drawn) [CBK281747], the viability at 28.5 h, 10 µM came out at 87.6%. Turning to `CC1(CNC(=O)c2cc(C3CC3)nc3ccccc23)COC1` [CBK281752], the viability at 28.5 h, 10 µM is 90%. The figure for `CC1(CNC(=O)C2CC(=O)N(C3CCCCC3)C2)COC1` (stereo not drawn) [CBK281754] is 97%; for `CC(CC(=O)NCC1(C)COC1)n1cnc2ccccc21` (stereo not drawn) [CBK281755] it is 78.1%. Consider `CC1(CNC(=O)c2cc(-c3ccc(F)cc3)no2)COC1` [CBK281757], for which the viability at 28.5 h, 10 µM is 84.2%. For `Cc1cc(C)n(C(C(=O)NCC2(C)COC2)C(C)C)n1` (stereo not drawn) [CBK281758], the viability at 28.5 h, 10 µM is 85.9%. On to `CCn1cc(-c2cncn2CCCOc2cccc(C)c2)cn1` [CBK281760], for which the viability at 28.5 h, 10 µM was determined as 90.5%. The result for `CCn1nc(C)c(-c2cncn2CCCOc2ccccc2C)c1C` [CBK281761] reads 99.7%; that for `Cc1cccc(OCCCn2cncc2-c2cnn(C)c2)c1` [CBK281763], 82%; that for `CCn1nc(C)c(-c2cncn2CCn2nc(C)c(Cl)c2C)c1C` [CBK281768], 90.4%. The result for `CCn1nc(C)c(-c2cncn2CCCN2CCCCC2)c1C` [CBK281769] reads 97.6%. With `Cc1cc(C)n(CCCn2cncc2-c2cnn(C)c2)n1` [CBK281771], the viability at 28.5 h, 10 µM stood at 84.9%. As to `Cc1cc(C)n(CCCn2cncc2-c2ccc3c(c2)CC(C)N3C)n1` (stereo not drawn) [CBK281773], the viability at 28.5 h, 10 µM was 62%. With `Cc1nn(C)c(C)c1CCNC(=O)CC1CCCCN1C` (stereo not drawn) [CBK281774], the viability at 28.5 h, 10 µM is 97.6%. With `CC(C)(CO)CCCn1cncc1-c1cnn(C2CCCCC2)c1` [CBK281779], the viability at 28.5 h, 10 µM was determined as 86.7%.

`Cc1nn(C)cc1-c1cncn1CC(C)N1CCCCC1` (stereo not drawn) [CBK281781]: the viability at 28.5 h, 10 µM was determined as 92.1%. As to `Cc1nn(CCn2cncc2-c2cnn(C)c2)c(C)c1C` [CBK281783], the viability at 28.5 h, 10 µM was 83.7%. Regarding `Cn1cc(-c2cncn2CCCOc2ccc(Cl)cc2)cn1` [CBK281784], the viability at 28.5 h, 10 µM is 95.2%. The figure for `Cc1nn(C)cc1-c1cncn1CC(C)N1CCC(C)CC1` (stereo not drawn) [CBK281789] is 91.4%; for `Cc1ccc2[nH]c(-c3cncn3C(C)CN3CCOCC3)c(C)c2c1` (stereo not drawn) [CBK281794] it is 103%. In the case of `Cc1c(-c2cncn2C(C)CN2CCOCC2)[nH]c2ccccc12` (stereo not drawn) [CBK281795], the viability at 28.5 h, 10 µM was 99.9%. Consider `CCCn1nc(C)c(-c2cncn2CC(C)N2CCCCC2)c1C` (stereo not drawn) [CBK281802], for which the viability at 28.5 h, 10 µM is 95.7%. As for `CC(=O)NC1(c2ccccc2)CCN(Cc2ccnn2C)CC1` [CBK281805], the viability at 28.5 h, 10 µM amounted to 87.8%. The figure for `Cc1cc(C)n(C2CCN(Cc3cn(C)c4cc(F)ccc34)CC2)n1` [CBK281806] is 112%; for `CCn1nc(C)c(-c2cncn2CCCC(C)(C)CO)c1C` [CBK281807] it is 84.4%; for `Cc1nccn1CCCn1cncc1-c1ccc2c(c1)CC(C)(C)O2` [CBK281809] it is 106%. In the case of `Cc1nccn1CCCn1cncc1-c1ccc2c(c1)CCC(C)N2C` (stereo not drawn) [CBK281811], the viability at 28.5 h, 10 µM came to 91%. With `CC(C)c1nccn1CCCn1cncc1-c1cnn(C)c1` [CBK281812], the viability at 28.5 h, 10 µM is 104%. As to `COc1ccc(CCn2cncc2-c2cn(C)nc2C)cc1C` [CBK281814], the viability at 28.5 h, 10 µM was found to be 102%. Turning to `CCN1c2ccc(-c3cncn3CC(=O)NC(C)(C)C)cc2CC1C` (stereo not drawn) [CBK281815], the viability at 28.5 h, 10 µM stood at 95.7%. Regarding `Cc1nccn1CCCn1cncc1-c1cnn(C2CCCCC2)c1` [CBK281816], the viability at 28.5 h, 10 µM was 105%. In the case of `COc1cccc2cc(-c3cncn3CCCC(C)(C)CO)oc12` [CBK281817], the viability at 28.5 h, 10 µM worked out at 112%. Take `Cc1nccn1CCCn1cncc1-c1ccc2c(c1)CC(C)N2C` (stereo not drawn) [CBK281818]: the viability at 28.5 h, 10 µM came out at 87.8%.

Consider `CC(NC(=O)c1cc2ccc(N(C)C)cc2[nH]1)c1ccccn1` (stereo not drawn) [CBK281821], for which the viability at 28.5 h, 10 µM came to 80.6%. On to `CC(NC(=O)CCc1nc2ccccc2n1C)c1ccccn1` (stereo not drawn) [CBK281823], for which the viability at 28.5 h, 10 µM was determined as 89%. Regarding `CN(C)c1ccc(CCNC(=O)c2c3c(nn2C)CCCC3)cc1` [CBK281824], the viability at 28.5 h, 10 µM is 96.4%. The figure for `Cc1cc(C(=O)NC(C)c2ccccn2)c2ccccc2n1` (stereo not drawn) [CBK281826] is 96.9%; for `CN(CCN1CCCCC1)C(=O)c1cc2ccc(N(C)C)cc2[nH]1` [CBK281830] it is 107%; for `Cc1ccc(C2(C(=O)N(C)CCN3CCCCC3)CCOCC2)cc1` [CBK281833] it is 107%. In the case of `CCn1c(C)nc2cc(NC(=O)Cc3c(C)noc3C)ccc21` [CBK281834], the viability at 28.5 h, 10 µM came to 100%. For the compound `CN(CCN1CCCCC1)C(=O)c1cc2c([nH]1)CCCC2` [CBK281836], the viability at 28.5 h, 10 µM turned out to be 86.5%. With `Cc1nc2cc(C(=O)N3CCc4[nH]c5ccccc5c4C3)ccc2n1C` [CBK281842], the viability at 28.5 h, 10 µM was determined as 60.6%. `O=C(Cn1cnc2ccccc21)N1CCC(c2ccccc2)C1` (stereo not drawn) [CBK281845]: the viability at 28.5 h, 10 µM was determined as 84.5%. Turning to `CN(C)Cc1ccc(C(=O)N2CCc3[nH]c4ccccc4c3C2)cc1` [CBK281847], the viability at 28.5 h, 10 µM was determined as 82.9%.

Take `Cc1noc(C)c1CC(=O)N1CCc2[nH]c3ccccc3c2C1` [CBK281848]: the viability at 28.5 h, 10 µM was 97.8%. Turning to `O=C(c1cn2ccccc2n1)N1CCC(c2ccccc2)C1` (stereo not drawn) [CBK281850], the viability at 28.5 h, 10 µM is 104%. On to `O=C(c1cc(-c2ccccn2)n[nH]1)N1CCC(c2ccccc2)C1` (stereo not drawn) [CBK281852], for which the viability at 28.5 h, 10 µM came to 91.9%. As to `O=C(c1cnn(-c2ccccc2)c1)N1CCc2[nH]c3ccccc3c2C1` [CBK281853], the viability at 28.5 h, 10 µM was 74.1%. The figure for `Cc1nc2cc(C(=O)N(C)CCN3CCCCC3)ccc2n1C` [CBK281854] is 78.3%; for `CC1(C)C(=O)NCCN1C(=O)Cn1cnc2ccccc21` [CBK281856] it is 89.3%.

Consider `CCn1c(C)nc2cc(NC(=O)CC3CCCCO3)ccc21` (stereo not drawn) [CBK281859], for which the viability at 28.5 h, 10 µM was 98.2%. On to `O=C(Cn1cnc2ccccc21)N1CCc2[nH]c3ccccc3c2C1` [CBK281860], for which the viability at 28.5 h, 10 µM amounted to 74.7%. Regarding `O=C(CCn1cccn1)Nc1ccc(OC2CCCC2)cc1` [CBK281861], the viability at 28.5 h, 10 µM stood at 87.1%. `Cc1nc2cc(C(=O)NCC(C)(C)N3CCCCC3)ccc2n1C` [CBK281862]: the viability at 28.5 h, 10 µM was found to be 86.4%.

The viability is a read-out of living cells in per cent, often relative to untreated cells.
